One test relates to SERT. To be noted: cited from earlier work.
The next test deals with DAT. Particulars: cited from earlier work; for IC50: read-out: DAT IC50, oxatropenes substituted at the C3 position.
For test [1], the target named is human dopamine transporter (hDAT) (Macaca fascicularis, UniProt Q9GJT6). The experiment in a line: Inhibition of [3H]WIN35,428 binding to the dopamine transporter. Particulars: DAT over SERT.

The values that follow come from paper PMC3345971 (Bioorganic & medicinal chemistry, 2012).

Bounds are passed on as bounds.

Sequence of human dopamine transporter (hDAT) (Q9GJT6 whole entry): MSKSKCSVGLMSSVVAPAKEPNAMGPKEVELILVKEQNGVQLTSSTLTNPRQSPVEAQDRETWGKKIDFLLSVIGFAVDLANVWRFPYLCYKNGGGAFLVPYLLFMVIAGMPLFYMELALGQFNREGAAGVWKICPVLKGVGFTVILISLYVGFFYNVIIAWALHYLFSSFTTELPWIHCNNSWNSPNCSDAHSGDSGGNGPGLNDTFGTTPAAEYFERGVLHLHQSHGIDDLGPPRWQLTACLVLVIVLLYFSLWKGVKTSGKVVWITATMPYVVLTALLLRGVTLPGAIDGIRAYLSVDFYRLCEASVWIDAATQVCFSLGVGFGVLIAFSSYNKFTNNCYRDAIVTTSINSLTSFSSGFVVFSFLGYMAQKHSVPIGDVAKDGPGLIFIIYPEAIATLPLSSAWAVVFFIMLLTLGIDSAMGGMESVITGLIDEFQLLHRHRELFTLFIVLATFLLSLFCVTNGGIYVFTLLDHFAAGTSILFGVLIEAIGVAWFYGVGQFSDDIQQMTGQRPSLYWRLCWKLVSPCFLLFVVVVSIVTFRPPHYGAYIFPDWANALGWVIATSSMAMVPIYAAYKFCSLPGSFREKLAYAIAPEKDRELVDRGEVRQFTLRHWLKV

Turning to “2β-Carbomethoxy-3 β-[2-furylphenyl]-8-azabicyclo[3.2.1]tropane”, the SERT binding in the test with SERT (reported by Tamagnan et al) is given as 0.15 nM. Also, the DAT binding in the test on DAT (reported by Tamagnan et al) was 3.76 nM.

For the molecule “2β-carbomethoxy-3β-(2-naphthyl)-8-aza-bicyclo[3.2.1]octanes”, in the test with SERT, the “inhibition of SERT” value was 2.19 nM. In the test on DAT, the “inhibition of DAT” value is on record as 0.49 nM.

Take `COC(=O)C1=C(c2cccc3ccccc23)CC2CCC1O2` (centres unmarked) [oxatropene with 1-naphthyl]: the IC50 in the test on DAT is 1720 nM.

`COC(=O)C1=C(c2ccc3cc4ccccc4cc3c2)CC2CCC1O2` (centres unmarked) [oxatropene with 2-anthracenyl]: the IC50 in the test on DAT is > 40000 nM.

As for `COC(=O)C1=C(c2ccc3ccccc3c2)CC2CCC1O2` (centres unmarked) [oxatropene with 2-naphthyl], the IC50 with DAT was 20 nM.

Turning to “(R,S)-3-[2-Benzothiophen-2-yl] -8-oxa-bicyclo[3.2.1]oct-2-ene-2carboxylic acid methyl ester [14m]”, in test [1], the “selectivity for DAT vs. SERT” value is 177 fold.
